Consider five compounds from patent US20240132498A1, “CRYSTALLINE FORMS OF 5-(3,4-DIFLUOROBENZYL)-8-((1R,4R)-4-METHYLCYCLOHEXYL)-6,9-DIOXO-2,5,8-TRIAZASPIRO[3.5]NONANE-2-CARBALDEHYDE” (Cytokinetics, Incorporated, priority 2022, published 2024).

Usually clearance stands for the rate of elimination divided by the concentration. A low value points to inefficient removal. As a reminder, the half-life is the time needed for the level to fall by half in the phase considered. The low end stands for rapid decline, the high end for slow decline.

Data set [1] in a line: Rat single dose pharmacokinetics. It counts as in vivo. The settings on record: male, plasma, iv, Sprague Dawley rats; for Vd: read-out: Vss. How it is done:
Male Sprague Dawley rats were obtained from Zhejiang Vital River Laboratory Animal Technology Co., Ltd. The animals in IV group had free access to water and food. The animals in PO group were fasted overnight before dosing and provided with food 2 hours post dosing. The IV dose solution was prepared in 10% DMA/50% PG/40% HPOCD solution (40% w/v aqueous HPOCD) at a concentration of 1 mg/mL. The oral dosing suspension was prepared by suspending Test Article in 0.5% HPMC/0.1% Tween 80 in water at a concentration 0.2 mg/mL. Concentrations of IV and PO doses were measured at the end of the study. Pharmacokinetic parameters were calculated using the nominal dose values if the measured values were within 20% of the nominal values. Three rats were dosed IV via a bolus injection via caudal vein. Three rats per dose group were dosed by oral gavage. Blood samples were collected from the jugular vein cannula at predose, 5 (IV only),15, 30 minutes, and 1, 2, 4, 6, and 24 hours post-dose. Blood volumes were replaced with an equal amount of sterile 0.9% saline. Blood samples were centrifuged and the collected plasma was stored at −80° C. for subsequent analysis. Plasma samples were analyzed for Test Article concentrations using a LC/MS/MS method. Briefly, a 50 μL aliquot of each plasma sample was mixed with 100 μL of acetonitrile that contained an internal standard. The mixture was vortexed and centrifuged. Ten (10) μL of the resulting solution was injected onto a reverse-phase C18 column and the resultant peaks detected on a LC/MS/MS equipped with a turbo ionspray ionization source. Sample concentrations below the limit of quantification (BLQ) were treated as zero for pharmacokinetic calculations. Pharmacokinetic parameters were estimated from individual animals using noncompartmental analysis of the concentration-time data (Phoenix WinNonLin software, version 64; Pharsight, Mountain View, CA). The elimination rate constant (k) was calculated as the absolute value of the slope of the linear regression of logarithm (log) of the concentration versus time for the last three data points of the concentration-time profiles. Apparent elimination half-life (t1/2) values were calculated as In(2)/k. Area under the concentration-time curve (AUC) values were estimated using linear trapezoidal method. AUC values were calculated from the dosing time to the last measurable concentration. AUC∞ values were calculated as the sum of the corresponding AUC and the ratio of the last detectable concentration divided by k (AUCt-∞). Plasma clearance (CL) was calculated from Dose/AUC∞. Mean resident time (MRT) was estimated by moment analysis. Volume of distribution at steady state (Vss) was calculated from MRT∞×CL. Maximum concentration (Cmax) and time to reach Cmax (tmax) were recorded as observed. Bioavailability was calculated from the ratio of dose normalized AUC∞,po of individual rats/mean dAUC∞,iv×100% where dAUC was the dose normalized AUC value. Compounds tested were prepared in accordance with the synthetic procedures described herein.

Data set [2] concerns the target T1, bovine cardiac myofibrils (Bos taurus, UniProt Q9BE39).
T1 construct: full-length cardiac myosin in the context of the native sarcomere; from tissue; host or cells: bovine cardiac left ventricular tissue, detergent-skinned myofibrils
Put plainly: Skinned bovine cardiac myofibril ATPase assay (PK/LDH-coupled). It counts as biochemical. The following applies: bovine cardiac myofibril ATPase activity; Ca2+ for 50% or 75% activation. How it is done: To evaluate the effect of the compound 5-(3,4-difluorobenzyl)-8-((1r,4r)-4-methylcyclohexyl)-6,9-dioxo-2,5,8-triazaspiro[3.5]nonane-2-carbaldehyde on the ATPase activity of full-length cardiac myosin in the context of the native sarcomere, skinned myofibril assays were performed. Bovine cardiac myofibrils were obtained by homogenizing bovine cardiac left ventricular tissue in the presence of a detergent such as triton X-100. Such treatment removes membranes and a majority of the soluble cytoplasmic proteins but leaves intact the cardiac sarcomeric acto-myosin apparatus. Myofibril preparations retain the ability to hydrolyze ATP in a Ca^2+ regulated manner. ATPase activities of such myofibril preparations in the presence and absence of the compound 5-(3,4-difluorobenzyl)-8-((1r,4r)-4-methylcyclohexyl)-6,9-dioxo-2,5,8-triazaspiro[3.5]nonane-2-carbaldehyde was assayed at Ca^2+ concentrations activating to a defined fraction of the maximal rate (i.e., […], 75%). The compound 5-(3,4-difluorobenzyl)-8-((1r,4r)-4-methylcyclohexyl)-6,9-dioxo-2,5, 8-triazaspiro [3.5]nonane-2-carbaldehyde was assessed for its ability to inhibit the steady-state ATPase activity of bovine cardiac myofibrils using pyruvate kinase and lactate dehydrogenase (PK/LDH)-coupled enzyme system. This assay regenerates myosin-produced ADP into ATP by oxidizing NADH, producing an absorbance change at 340 nm. Prior to testing this compound, the bovine cardiac myofibrils were assessed for their calcium responsiveness and the calcium concentration that achieves either a 50% (pCa50) or 75% (pCa75) activation of the myofibril system was chosen as the final condition for assessing the inhibitory activity of this compound. All enzymatic activity was measured in a buffered solution containing 12 mM PIPES (piperazine-N,N′-bis(2-ethanesulfonic acid), 2 mM magnesium chloride at pH 6.8 (PM 12 buffer). Final assay conditions were 1 mg/mL of bovine cardiac myofibrils, 4 U/mL pyruvate kinase, 6 U/mL lactate dehydrogenase, 50 μM ATP, 0.1 mg/mL BSA (bovine serum albumin), 10 ppm antifoam, 1 mM DTT, 0.5 mM NADH, 1.5 mM PEP, 0.6 mM EGTA, and an amount of CaCl2) sufficient to achieve either 50% or 75% activation of the myofibril ATPase activity. The compound tested was prepared in accordance with the synthetic procedures described herein.

T1 sequence (Q9BE39 whole entry): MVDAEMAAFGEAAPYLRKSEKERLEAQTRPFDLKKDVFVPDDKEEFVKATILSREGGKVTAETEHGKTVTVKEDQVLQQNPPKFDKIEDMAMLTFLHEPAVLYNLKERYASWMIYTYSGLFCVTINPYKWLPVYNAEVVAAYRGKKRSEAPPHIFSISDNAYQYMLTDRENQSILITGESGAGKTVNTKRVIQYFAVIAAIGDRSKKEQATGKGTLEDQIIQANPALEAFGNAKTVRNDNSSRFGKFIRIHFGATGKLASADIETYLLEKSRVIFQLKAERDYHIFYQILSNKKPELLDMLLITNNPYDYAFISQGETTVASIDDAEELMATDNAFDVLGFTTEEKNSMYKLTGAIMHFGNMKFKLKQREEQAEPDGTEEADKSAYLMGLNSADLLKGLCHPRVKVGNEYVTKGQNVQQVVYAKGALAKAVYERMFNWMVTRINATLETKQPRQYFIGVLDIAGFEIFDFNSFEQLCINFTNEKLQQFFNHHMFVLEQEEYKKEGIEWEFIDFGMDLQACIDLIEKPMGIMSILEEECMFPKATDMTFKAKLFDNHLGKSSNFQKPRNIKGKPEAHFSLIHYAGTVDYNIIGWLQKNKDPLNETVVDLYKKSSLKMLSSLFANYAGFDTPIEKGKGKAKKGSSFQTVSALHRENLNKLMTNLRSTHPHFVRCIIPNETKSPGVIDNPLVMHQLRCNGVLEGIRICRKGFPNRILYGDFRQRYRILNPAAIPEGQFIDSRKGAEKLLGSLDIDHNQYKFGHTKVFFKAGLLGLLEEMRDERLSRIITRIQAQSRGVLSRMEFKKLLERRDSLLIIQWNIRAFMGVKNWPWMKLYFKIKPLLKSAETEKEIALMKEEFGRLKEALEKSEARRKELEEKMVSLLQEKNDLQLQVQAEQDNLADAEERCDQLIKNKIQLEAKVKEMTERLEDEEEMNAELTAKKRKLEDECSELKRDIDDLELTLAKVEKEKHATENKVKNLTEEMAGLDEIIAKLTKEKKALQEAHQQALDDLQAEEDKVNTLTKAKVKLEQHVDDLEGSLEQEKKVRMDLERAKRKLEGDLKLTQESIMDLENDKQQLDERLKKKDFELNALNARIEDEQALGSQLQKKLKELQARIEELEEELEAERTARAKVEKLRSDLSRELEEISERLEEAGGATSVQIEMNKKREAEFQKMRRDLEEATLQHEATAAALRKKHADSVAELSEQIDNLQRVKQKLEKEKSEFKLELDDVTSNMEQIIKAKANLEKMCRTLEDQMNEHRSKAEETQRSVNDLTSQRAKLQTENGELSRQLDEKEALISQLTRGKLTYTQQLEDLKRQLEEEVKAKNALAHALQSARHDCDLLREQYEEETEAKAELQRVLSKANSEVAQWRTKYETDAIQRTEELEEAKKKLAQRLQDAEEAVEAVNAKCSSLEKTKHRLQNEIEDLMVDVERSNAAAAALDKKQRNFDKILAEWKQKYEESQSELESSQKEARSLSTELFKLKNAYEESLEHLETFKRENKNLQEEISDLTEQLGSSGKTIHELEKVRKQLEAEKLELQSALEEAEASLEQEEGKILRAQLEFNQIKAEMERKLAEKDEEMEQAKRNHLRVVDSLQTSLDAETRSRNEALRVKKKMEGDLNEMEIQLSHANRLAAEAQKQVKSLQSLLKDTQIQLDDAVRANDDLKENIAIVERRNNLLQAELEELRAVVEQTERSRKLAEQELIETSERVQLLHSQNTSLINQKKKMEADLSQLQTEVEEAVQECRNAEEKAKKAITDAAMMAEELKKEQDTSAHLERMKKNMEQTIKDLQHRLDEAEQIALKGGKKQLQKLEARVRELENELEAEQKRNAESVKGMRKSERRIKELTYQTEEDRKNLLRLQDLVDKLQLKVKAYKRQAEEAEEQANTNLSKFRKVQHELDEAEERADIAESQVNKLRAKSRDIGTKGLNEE
T1 sequence (P85100 whole entry partner): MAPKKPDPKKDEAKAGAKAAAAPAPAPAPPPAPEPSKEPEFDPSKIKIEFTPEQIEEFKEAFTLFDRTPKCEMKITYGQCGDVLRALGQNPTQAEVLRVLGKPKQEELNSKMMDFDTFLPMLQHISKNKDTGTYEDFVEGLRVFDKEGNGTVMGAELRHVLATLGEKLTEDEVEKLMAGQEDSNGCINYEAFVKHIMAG
T1 sequence (Q3SZE5 whole entry partner): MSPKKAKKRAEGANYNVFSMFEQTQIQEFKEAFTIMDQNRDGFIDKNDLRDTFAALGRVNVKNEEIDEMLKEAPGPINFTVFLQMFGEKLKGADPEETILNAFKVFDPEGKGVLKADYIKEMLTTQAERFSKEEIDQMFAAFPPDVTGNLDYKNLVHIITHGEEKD

With `O=CN1CC2(C1)C(=O)N(c1ccc(F)cc1F)CC(=O)N2Cc1ccc(Cl)cc1` [Comparator A, 5-(4-chlorobenzyl)-8-(2,4-difluorophenyl)-6,9-dioxo-2,5,8-triazaspiro[3.5]nonane-2-carbaldehyde], in data set [1], the clearance came to 29.6 mL/min/kg, the half-life is 6.48 h and the Vd was determined as 15.1 L/kg. Also, the “CDMF IC15” value in data set [2] amounted to 1.8 µM.
For `C[C@H]1CC[C@H](N2CC(=O)N(Cc3ccc(F)c(F)c3)C3(CN(C=O)C3)C2=O)CC1` [Compound 1, 5-(3,4-difluorobenzyl)-8-((1r,4r)-4-methylcyclohexyl)-6,9-dioxo-2,5,8-triazaspiro[3.5]nonane-2-carbaldehyde], in that order: 52.6 mL/min/kg, 3.34 h, 13 L/kg and 1.5 µM.
Turning to `O=C1[C@H](C2COC2)N(Cc2ccc(C(F)(F)F)cc2)C(=O)CN1c1ncc(Cl)cc1F` [Comparator C, (S)-1-(5-chloro-3-fluoropyridin-2-yl)-3-(oxetan-3-yl)-4-(4-(trifluoromethyl)benzyl)piperazine-2,5-dione, reference compound], in data set [1], the clearance turned out to be 20.2 mL/min/kg, the half-life was 3.3 h and the Vd was determined as 5.2 L/kg. In data set [2], the “CDMF IC15” value was 1.1 µM.
Take `CC(=O)N1CC2(C1)C(=O)N(c1ccc(C#N)cc1F)CC(=O)N2Cc1ccc(C(F)(F)F)cc1` [Comparator D, 4-(2-acetyl-6,9-dioxo-5-(4-(trifluoromethyl)benzyl)-2,5,8-triazaspiro[3.5]nonan-8-yl)-3-fluorobenzonitrile]: in data set [1], the clearance came to 8.23 mL/min/kg, the half-life is 4.84 h and the Vd is 2.98 L/kg. For the same compound, the “CDMF IC15” value in data set [2] came out at 1.1 µM.
Regarding `O=CN1CC2(C1)C(=O)N([C@H]1CC[C@H](C(F)F)CC1)CC(=O)N2Cc1ccc(C(F)(F)F)cc1` [Comparator E, 8-((1r,4r)-4-(difluoromethyl)cyclohexyl)-6,9-dioxo-5-(4-(trifluoromethyl)benzyl)-2,5,8-triazaspiro[3.5]nonane-2-carbaldehyde], in data set [1], the clearance was 18.8 mL/min/kg, the half-life is 5.4 h and the Vd was found to be 8.23 L/kg. Besides, the “CDMF IC15” value in data set [2] was 1.3 µM.
